Data as given in patent US7179495B1 (Universitaetsklinikum Freiburg, priority 1998, dated 2007).

Experiments:
Jurkat (leukaemia) = test: apoptotic DNA fragmentation by DNA gel electrophoresis; assay type: cell-based, human
Description: The DNA fragmentation was determined by means of DNA gel electrophoresis. Jurkat (leukaemia) was used as the tumour cell line.
Apoptotic DNA fragments were isolated by means of lysis with NP 40. The cells were washed and pelleted after 4 hours or after 24 hours, respectively. The cell pellet was incubated for 10 sec. with lysis buffer (1% NP 40, Sigma; 20 mM EDTA, Sigma; 50 mM Tris-HCl, Sigma). the lysates were mixed with 1% SDS (Sigma), incubated at 56° C. for 2 h with RNase (5 μg/μl) (Boehringer), and digested with proteinase K (Sigma) (2.5 μg/μl) for 2 h at 37° C. After 10 M ammonium acetate had been added, the DNA was precipitated with 100% ethanol at −20° C. and analysed by means of gel electrophoresis on 1% agarose gels.

[1] = test system: epidermal cells (EC) and T cells (TC); test: MECLR in vitro, EC or TC preincubated with hyperforin; details: FIG. 9
Description: The roof of the blister was dissected out under sterile conditions using a scalpel and a suspension of epidermal cells (EC) was prepared by treating with trypsin. […] After that, the cells were washed and 50,000 EC were cocultured for 6 days (37° C., 5% CO2) with 150,000 TC (T cells) in 1640 RPMI containing 10% foetal calf serum (FCS) containing 1% penicillin-streptomycin in 96-well flat-bottomed microtitre plates (Greiner). 1 μCurie of ^3H-thymidine (Amersham) was then added per well and, after 18 h, the incorporated radioactivity was measured in a scintillation counter (Canberra Packard). The radioactivity which is measured is proportional to the replication of the DNA in the cells.

HaCaT cells = test: proliferation of keratinocytes, 3H-thymidine incorporation; assay type: cell-based, human
T cells [2] = test: proliferation of T cells; assay type: cell-based
keratinocytes (HaCaT) = test: induction of apoptosis in keratinocytes; assay type: cell-based
T cells [3] = test: induction of apoptosis in T cells; assay type: cell-based

SMILES: CC(=O)O[C@H]1C(=O)[C@@]2(C)[C@H]([C@H](OC(=O)c3ccccc3)[C@]3(O)C[C@H](OC(=O)[C@H](O)[C@@H](NC(=O)c4ccccc4)c4ccccc4)C(C)=C1C3(C)C)[C@]1(OC(C)=O)CO[C@@H]1C[C@@H]2O [taxol, reference compound]
- apoptotic DNA fragmentation (Jurkat (leukaemia); 10 μM, 4 hours): +
- apoptotic DNA fragmentation (Jurkat (leukaemia); 10 μM, 24 hours): ++

SMILES: CC(C)=CCC[C@]1(C)[C@@H](CC=C(C)C)CC2(CC=C(C)C)C(=O)C(CC=C(C)C)=C(O)C1(C(=O)C(C)C)C2=O (stereo partly shown) [hyperforin]
- apoptotic DNA fragmentation (Jurkat (leukaemia); 40 μM, 4 hours): ++
- apoptotic DNA fragmentation (Jurkat (leukaemia); 40 μM, 24 hours): ++
- speed of apoptosis induction compared with taxol (Jurkat (leukaemia); hyperforin 40 μM vs taxol 10 μM, fully developed after only 4 hours): induces apoptosis in tumour cells more rapidly than does taxol
- proliferation in MECLR ([1]; EC incubated 24 h with 24 μg of hyperforin/ml): significantly inhibits proliferation
- proliferation in MECLR ([1]; TC incubated 24 h with 24 μg of hyperforin/ml): significantly inhibits proliferation
- concentration from which a proliferation-inhibiting effect is seen (HaCaT cells; human keratinocytes): ≥ 100 ng/mL
- proliferation of HaCaT cells (HaCaT cells; hyperforin 100 μg/ml, 24 h, FIG. 6): virtually completely inhibited

SMILES: Cc1cc(O)c2c(=O)c3c(O)cc(O)c4c5c(O)cc(O)c6c(=O)c7c(O)cc(C)c8c1c2c(c34)c(c78)c65 [hypericin]
- effect on proliferation of T cells (T cells [2]): proliferation-inhibiting effect
- induction of apoptosis (keratinocytes (HaCaT)): can induce apoptasis
- induction of apoptosis (T cells [3]): can induce apoptasis
- effect on proliferation of keratinocytes (HaCaT) (HaCaT cells): proliferation-inhibiting effect
